Experiments:
[1] = system: full panel of 59 cancer cells; test: NCI one-dose screen (SRB), full panel; type: cell-based, human; conditions: mean over full panel of 59 cell lines, 10 µM single dose; for inhibition at 10 µM: Homo sapiens, read-out: MGI% (mean growth inhibition percentage)
Protocol: The growth percentage (G%) and cell viability of the herein target compounds 6a–l, 7a,b, and 9a–c have been screened towards a full panel of 59 cancer cells at NCI’s Developmental Therapeutics Program (NCI-DTP, MD, USA)[21]. The submitted analogues were initially examined for preliminary in vitro anticancer activity using sulforhodamine B (SRB) assay at 10 µM as a single dose to evaluate cell growth and viability according to the procedure of Drug Evaluation Branch[22]^,[23].
Different types of tumours – colon, NSCLC, leukaemia, CNS, renal, breast, ovarian, melanoma, and prostate cancers – were investigated as a full panel of 59 cell lines, and the attained results are cited in Figures S1–S17 (see Supplementary Material) where the value recorded is the growth relative to that of both the negative control and zero-time number of cells in which both growth inhibition (GI%; 0–100%) and lethality (L%; 0–100%) percentages can be identified. The growth inhibition means percentages (MGI%) for the examined target analogues towards the different treated 59 cancer cells were presented in Figure 2.
The designed analogues were submitted to NCI-Chemotherapeutic Agents Repository (MD, USA) for screening on a panel of 59 cancer cell lines. All compounds were initially examined at 10 µM concentration (Single-Dose Screen), and then the most efficient analogue 6i was screened further at 0.01–100 µM (Five-Dose Screen). The screening procedures were performed according to NCI-Drug Evaluation Branch protocol using SRB protein assay, as described previously[21]^,[66]. The experimental procedures were detailed in the Supporting Information.

[2] = system: HSF (Normal human skin fibroblast) cells; test: MTT cytotoxicity assay; type: cell-based; conditions: HSF normal fibroblasts, 48 h, mean ± SD from triplicates
Protocol: The results hinted that 6i elicited stronger cytotoxicity and higher selectivity for cancer than normal cells.
(§1) The MTT assay was carried out according to the procedure cited earlier. Briefly, in a 96-well plate, either cancer or normal cells were seeded (10^6 cells/cm^2; 100 µL/well) and incubated for 12 h at 37 °C and CO2 (5%), then serial dilutions of compound 6i were added and incubated for 48 h using DMSO control (0.5% V/V). MTT (3-(4,5-dimethylthiazoyl)-2,5-diphenyl-tetrazolium bromide; Cat. No. M-5655) 5 mg/mL was then added. After 4 h incubation, the formed MTT formazan crystals were solubilised by 10% Triton X-100 plus 0.1 N HCl in anhydrous isopropanol. The absorbance was read using a Bioline plate reader at λ570–630 nm[25–29]. The selectivity of 6i towards HSF cells was also determined as follows[30]^,[31]: SI=IC50HSF cells/IC50of cancer cells

MCF-7 (Breast cancer) = test: MTT cytotoxicity assay; type: cell-based, human; conditions: Homo sapiens, MCF7; MCF-7; MTT, 48 h; mean ± SD from triplicates
Protocol: as §1

PC-3 (Prostate cancer) = test: MTT cytotoxicity assay; type: cell-based, human; conditions: Homo sapiens; PC-3; MTT, 48 h; mean ± SD from triplicates
Protocol: as §1

OVCAR-3 (Ovarian Cancer) = test: MTT cytotoxicity assay; type: cell-based, human; conditions: Homo sapiens, OVCAR-3, 48 h, OVCAR-3; MTT, 48 h; mean ± SD from triplicates
Protocol: as §1

CCOC(=O)CC[C@H](NC(=O)c1ccc(NC(=O)CSC2=NC(C)=C(C(=O)OCC)[C@@H](c3ccc(Cl)cc3)N2)cc1)C(=O)OCC [Compound 9b]
inhibition at 10 µM [1]: 33.9%

CN(Cc1cnc2nc(N)nc(N)c2n1)c1ccc(C(=O)N[C@@H](CCC(=O)O)C(=O)O)cc1 [MTX, methotrexate, reference compound]
IC50 [2]: 13.7 ± 0.69 µM
IC50 (MCF-7 (Breast cancer)): 580 ± 30 nM
IC50 (PC-3 (Prostate cancer)): 2720 ± 140 nM
IC50 (OVCAR-3 (Ovarian Cancer)): 6.31 ± 0.32 µM

CCOC(=O)CC[C@H](NC(=O)c1ccc(NC(=O)Cn2cnc3c(c(SC)nn3-c3ccc(Br)cc3)c2=O)cc1)C(=O)OCC [Compound 6k]
MGI% (mean growth inhibition percentage) [1]: failed to demonstrate MGI%

CCOC(=O)CC[C@H](NC(=O)c1ccc(NC(=O)CSC2=NC(C)=C(C(=O)OCC)[C@@H](c3ccc(Br)cc3)N2)cc1)C(=O)OCC [Compound 9c]
inhibition at 10 µM [1]: 36.9%

From publication PMC10120551, “Novel Glu-based pyrazolo[3,4-d]pyrimidine analogues: design, synthesis and biological evaluation as DHFR and TS dual inhibitors” (Journal of Enzyme Inhibition and Medicinal Chemistry, 2023)
